Reference: US20240366594A1, “Small Molecule Inhibitors of Formation of Neutrophil-Derived Extracellular Traps (NETosis) and Uses Thereof” (The Brigham and Women's Hospital, Inc., priority 2021, published 2024)

Tested on: primary human neutrophils
Test: Extracellular DNA release by PMA-activated human neutrophils
Format: cell-based
Conditions: 1 μM GSK484 for 1 h, then 1 μM PMA for 4 hours; FIG. 5A
Protocol: FIGS. 5A-J. Class I/II HDACs drive NET formation. • A) Quantification of extracellular DNA released by neutrophils treated, or not, with 1 μM GSK484 for 1 h and then stimulated with 1 μM PMA for 4 hours. Unstimulated, neutrophils not treated with drugs were used as a control. • B) Freshly purified human neutrophils were treated with the indicated HDAC inhibitors at different doses (0.08, 0.4, 2 and 10 μM) for 1 hour. Extracellular DNA release was assessed in the supernatant 3 hours after PMA stimulation. The dotted line represents the amount of DNA released from neutrophils treated with PMA alone. […] NETosis induction was measured as level of anti-CitH3 fluorescent signal. […] NET induction was measured as in (C). […] NETosis induction was measured as level of anti-CitH3 fluorescent signal. […] NET induction was measured as in (F). • H, I) Freshly isolated neutrophils from two different donors were treated with different doses of ricolinostat, citarinostat (10, 2, 0.4, 0.08 μM) or GSK484 (10, 5, 2 μM) for 1 h and then stimulated with 1 μM PMA. NET induction was measured as level of anti-CitH3 fluorescent signal (H) and by microscopy as number of cells positive for CitH3 signal per field of view (FOV) (I). […] NET induction was measured as level of anti-CitH3 fluorescent signal. […] Statistics were calculated using One-way ANOVA (A, E, I) and Two-way ANOVA (B, F, G, H, L). […]

With `COc1cc(C(=O)N2CC[C@@H](O)[C@@H](N)C2)cc2nc(-c3cc4ccccc4n3CC3CC3)n(C)c12` [GSK484] as the compound, how does the “extracellular DNA released by PMA-treated neutrophils” value read?
Its value is “significant decrease”.
